Data published in patent US20230180804A1, “FLAVOR COMPOSITION, AND FOOD AND BEVERAGE” (TAKASAGO INTERNATIONAL CORPORATION, priority 2020, published 2023).

Key:
[1] = target: T1, olfactory receptor OR9Q2 (Homo sapiens, UniProt Q8NGE9); assay: OR9Q2 response inhibitory effect for p-cresol, luciferase reporter gene assay; assay type: cell-based; conditions: p-cresol 100 µM mixed with various concentrations of compound; cells expressing OR9Q2; ratio of Fold Increase value (FIGS. 1 to 11)
T1 construct: 20 N-terminal amino acid residues of bovine rhodopsin (Rho tag); expressed in transfected cells; host or cells: HEK293T
T1 sequence (Q8NGE9 1-314): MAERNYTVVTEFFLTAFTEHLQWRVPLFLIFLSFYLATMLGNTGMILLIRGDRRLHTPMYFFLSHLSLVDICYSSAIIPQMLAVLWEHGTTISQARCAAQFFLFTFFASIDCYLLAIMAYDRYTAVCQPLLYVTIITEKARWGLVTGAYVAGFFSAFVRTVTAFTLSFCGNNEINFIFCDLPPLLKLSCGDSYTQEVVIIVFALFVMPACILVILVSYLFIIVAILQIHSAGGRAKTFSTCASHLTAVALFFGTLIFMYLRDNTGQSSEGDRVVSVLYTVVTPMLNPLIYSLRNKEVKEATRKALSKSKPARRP
Experimental: The human olfactory receptor gene was obtained by cloning from Human Genomic DNA: Female (Promega) by PCR method based on the sequence information registered in GenBank. The 20 N-terminal amino acid residues of bovine rhodopsin were incorporated into the pME18S vector, and the obtained human olfactory receptor gene was incorporated downstream thereof to obtain a human olfactory receptor gene expression vector.
In 10 µL of Opti-MEM I (gibco), 0.05 µg of human olfactory receptor gene expression vector, 0.01 µg of RTP1S vector, 0.01 µg firefly luciferase vector pGL4.29 (Promega) containing cAMP response element promoter, and 0.005 µg of Renilla luciferase vector pGL4.74 (Promega) containing thymidine kinase promoter were dissolved to prepare a gene solution (for one well). HEK293T cells were seeded at 100 µL each in a 96-well plate (Biocoat, Coming) at the number of cells reaching confluence after 24 hours, and a gene solution was added to each well by the lipofection method according to the usage of Lipofectamine 3000 to introduce genes into the cells, and the cells were cultured at 37° C. in a 5% carbon dioxide atmosphere for 24 hours.
After removing the culture medium, the resultant was prepared with CD293 (gibco) medium ([…] added) so as to have a concentration for measuring the aroma substance to be tested, 50 µL of which was added each and stimulated for 3 hours, and then luciferase activity was measured according to the method of using the Dual-Luciferase Reporter Assay System (Promega). The response intensity of the olfactory receptor polypeptide was expressed as a Fold Increase value obtained by dividing the luciferase activity produced by stimulating the aroma substance by the luciferase activity produced in the test system containing no aroma substance.
p-Cresol at 100 µM was mixed with various concentrations of 1-oxacycloheptadecan-7-en-2-one, 1-oxacycloheptadecan-8-en-2-one, isoambrettolide, pentalide, muscone, civetone, 8-2-decenolactone, cinnamic aldehyde, […], sclareolide, and ethyl maltol, and receptor responses were measured in cells expressing OR9Q2. The ratio of the Fold Increase value in the test in which each compound was mixed was calculated, where the Fold Increase value in the test in none of these compounds was mixed was set to 100. FIGS. 1 to 11 present the results.

[2] = Sensory evaluation of p-cresol odor masking in p-cresol-containing citrus-flavored confectionery (tablet); conditions: for p-Cresol Odor Intensity: tablet with 200 ppb p-cresol, average score of 6 panelists, scale 0-4
Experimental: Lemon cold-pressed oil was added to the tablet having the composition presented in Table A at a concentration of 1 % by mass, and medium chain fatty acid triglycerides (MCT) was used to adjust p-cresol to a concentration of 0.1%, which was further added so as to reach 200 ppb in the citrus flavored confectionery. To this p-cresol-containing citrus-flavored confectionery, 1-oxacycloheptadecan-7-en-2-one was added at the concentrations presented in Table 12, and then tableting was performed to confirm the p-cresol odor intensity (masking effect) and the influence on the citrus flavor of each sample.
Six skilled panelists were selected to perform the same sensory evaluation as in Example 1. The results are as in Table 12, presenting the average score of the evaluation results for each panelist.

[3] = Sensory evaluation of p-cresol odor masking in p-cresol-containing lemon dressing; conditions: lemon dressing with 500 ppb p-cresol; for p-Cresol Odor Intensity: average score of 9 panelists, scale 0-4
Experimental: To a commercially available lemon dressing, p-cresol adjusted to a concentration of 0.1% with 95% ethanol was added to 500 ppb in the lemon dressing. To this p-cresol-containing lemon dressing, l-oxacycloheptadecan-8-en-2-one was added at the concentrations presented in Table 18 to confirm the p-cresol odor intensity (masking effect) and the influence on the citrus flavor of each sample.
Nine skilled panelists were selected to perform the same sensory evaluation as in Example 1. The results are as in Table 18, presenting the average score of the evaluation results for each panelist.

[4] = Sensory evaluation of p-cresol odor masking in p-cresol-containing citrus-flavored beverage; conditions: for p-Cresol Odor Intensity: beverage with 50 ppb p-cresol, average score of 7 panelists, scale 0-4
Experimental: To 2 g of lemon flavor obtained by making lemon oil into an essence, purified water was added to adjust the total amount to 1000 ml. To this citrus-flavored beverage, p-cresol adjusted to a concentration of 1% by mass with 95% ethanol was added to 50 ppb in the citrus-flavored beverage. To this p-cresol-containing citrus-flavored beverage, 1-oxacycloheptadecan-7-en-2-one was added at the concentrations presented in Table 1 to confirm the p-cresol odor intensity (masking effect) and the influence on the citrus flavor of each sample.
For the test, seven skilled panelists were selected to perform sensory evaluation. The p-cresol odor intensity of the p-cresol-containing citrus-flavored beverage without added l-oxacycloheptadecan-7-en-2-one was determined as “Rating: 4,” and the p-cresol odor intensity of the p-cresol-free citrus-flavored beverage was determined as “Rating: 0,” and the p-cresol odor intensity (masking effect) of each sample was relatively evaluated according to the following evaluation criteria.
In addition, the influence of the citrus-flavored beverage on the citrus flavor was evaluated absolutely according to the following evaluation criteria for the presence or absence of off- flavor other than p-cresol odor and citrus flavor (Off-Flavor Intensity).
The results are as in Table 1, presenting the average score of the evaluation results for each panelist.

[5] = citrus-flavored confectionery (tablet) with 200 ppb p-cresol
[6] = citrus-flavored beverage with 50 ppb p-cresol

## O=C1CCCCCCCCCCCCCCO1 [Pentalide, pentalide]
[1]
  effect of suppressing the response of OR9Q2 to p-cresol: suppressing the response of OR9Q2 to p-cresol in a concentration-dependent manner
[2]; 4 ppb added
  p-Cresol Odor Intensity: 2.3 points
[2]; 40 ppb added
  p-Cresol Odor Intensity: 1.7 points
[2]; 40 ppt added
  p-Cresol Odor Intensity: 2.8 points
[2]; 400 ppb added
  p-Cresol Odor Intensity: 1.5 points
[2]; 400 ppt added
  p-Cresol Odor Intensity: 2.7 points
[2]; [5]
  concentration at which the compound masks the p-cresol odor and does not affect the citrus flavor, lower limit: ≥ 400 ppt
  concentration at which the compound masks the p-cresol odor and does not affect the citrus flavor, upper limit: ≤ 400 ppb
[3]; 1 ppb added
  p-Cresol Odor Intensity: 1.1 points
[3]; 1 ppt added
  p-Cresol Odor Intensity: 3.6 points
[3]; 10 ppb added
  p-Cresol Odor Intensity: 0.9 points
[3]; 10 ppt added
  p-Cresol Odor Intensity: 2.8 points
[3]; 100 ppt added
  p-Cresol Odor Intensity: 1.9 points
[3]
  concentration at which the compound masks the p-cresol odor and does not affect the citrus flavor, lower limit: ≥ 10 ppt
  concentration at which the compound masks the p-cresol odor and does not affect the citrus flavor, upper limit: ≤ 10 ppb
[4]; 0.01 ppt added
  p-Cresol Odor Intensity: 3.6 points
[4]; 0.1 ppt added
  p-Cresol Odor Intensity: 2.9 points
[4]; 1 ppb added
  p-Cresol Odor Intensity: 1.4 points
[4]; 1 ppt added
  p-Cresol Odor Intensity: 2.6 points
[4]; 10 ppb added
  p-Cresol Odor Intensity: 1.0 points
[4]; 10 ppt added
  p-Cresol Odor Intensity: 2.0 points
[4]; 100 ppb added
  p-Cresol Odor Intensity: 0.6 points
[4]; 100 ppt added
  p-Cresol Odor Intensity: 1.9 points
[4]; [6]
  concentration at which the compound masks the p-cresol odor and does not affect the citrus flavor, lower limit: ≥ 0.1 ppt
  concentration at which the compound masks the p-cresol odor and does not affect the citrus flavor, upper limit: ≤ 1 ppb
